Measured values reported in PubChem BioAssay (NCI).
“And” between values parts separate entries of the source, which are not always exact repeats. Equal entries are not always repeated.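 Compound exposure: 48 hours, 5 concentrations, 96-well plates. GI50 marks 50% less growth. TGI denotes the concentration required for complete inhibition of growth.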

What was measured:
Experiment in all cases: NCI-60 cell line screen, 48 h
SR leukemia = system: SR leukemia
OVCAR-5 ovarian = system: OVCAR-5 ovarian
KM12 colon = system: KM12 colon
OVCAR-3 ovarian = system: OVCAR-3 ovarian
SF-268 CNS = system: SF-268 CNS
OVCAR-4 ovarian = system: OVCAR-4 ovarian
MALME-3M melanoma = system: MALME-3M melanoma
NCI-H460 lung = system: NCI-H460 lung
IGROV1 ovarian = system: IGROV1 ovarian
HT29 colon = system: HT29 colon

## COc1ccc2c(c1)sc1nc(-c3ccccc3)c(-c3ccsc3)n12
SR leukemia
  GI50: 2.02 µM
  TGI: > 100 µM
OVCAR-5 ovarian
  GI50: 4.49 µM
  TGI: > 100 µM
KM12 colon
  GI50: 3.7 µM
  TGI: > 100 µM
OVCAR-3 ovarian
  GI50: 2.15 µM
  TGI: 5.37 µM
SF-268 CNS
  GI50: 8.54 µM
  TGI: > 100 µM
OVCAR-4 ovarian
  GI50: 3.7 µM
  TGI: > 100 µM
MALME-3M melanoma
  GI50: > 100 µM
  TGI: > 100 µM
NCI-H460 lung
  GI50: 4.45 µM
  TGI: > 100 µM
IGROV1 ovarian
  GI50: 6.53 µM
  TGI: > 100 µM
HT29 colon
  GI50: 2.95 µM
  TGI: 10.5 µM

## COc1cc(/C=C/c2cc(C(F)(F)F)[nH]c(=O)n2)ccc1OCc1ccccc1F
SR leukemia
  GI50: 4.17 µM
  TGI: 43.3 µM
OVCAR-5 ovarian
  GI50: 16.5 µM
  TGI: 30.9 µM
KM12 colon
  GI50: 11.8 µM
  TGI: 26.2 µM
OVCAR-3 ovarian
  GI50: 4.72 µM
  TGI: 17.4 µM
SF-268 CNS
  GI50: 17.9 µM
  TGI: > 100 µM
OVCAR-4 ovarian
  GI50: 7.6 µM
  TGI: 67.9 µM
MALME-3M melanoma
  GI50: 13.9 µM
  TGI: 43.1 µM
NCI-H460 lung
  GI50: 4.44 µM
  TGI: 39.3 µM
IGROV1 ovarian
  GI50: 12.4 µM
  TGI: 42 µM
HT29 colon
  GI50: 21.5 µM
  TGI: 43.6 µM

## O=c1oc2ccccc2c(O)c1/C=N\c1nc(-c2ccccc2)cs1
SR leukemia
  TGI: 5.31 µM
OVCAR-5 ovarian
  TGI: 35.1 µM
KM12 colon
  TGI: 39.1 µM
OVCAR-3 ovarian
  TGI: 30.8 µM
SF-268 CNS
  TGI: 31.1 µM
OVCAR-4 ovarian
  TGI: > 100 µM
MALME-3M melanoma
  TGI: 27.3 µM
NCI-H460 lung
  TGI: > 100 µM
IGROV1 ovarian
  TGI: 27.8 µM
HT29 colon
  TGI: 32 µM

## CN1CCN(Cc2ccc(NC(=O)c3cncc(C#Cc4cnc(N)c5ccc(F)cc45)c3)cc2C(F)(F)F)CC1
SR leukemia
  GI50: 1.25 µM
  TGI: 33.3 µM
OVCAR-5 ovarian
  GI50: 3.52 µM
  TGI: 7.51 µM
KM12 colon
  GI50: 0.0282 µM
  TGI: 4.63 µM
OVCAR-3 ovarian
  GI50: 2.35 µM
  TGI: 7.21 µM
SF-268 CNS
  GI50: 1.79 µM
  TGI: 8.92 µM
OVCAR-4 ovarian
  GI50: 0.667 µM
  TGI: 4.23 µM
MALME-3M melanoma
  GI50: 1.08 µM
  TGI: 3.93 µM
NCI-H460 lung
  GI50: 1.08 µM
  TGI: 8.95 µM
IGROV1 ovarian
  GI50: 0.677 µM
  TGI: 4.08 µM
HT29 colon
  GI50: 0.956 µM
  TGI: 4.14 µM

## COc1ccc(-c2c(C3=NCCN3)nnn2-c2ccccc2)cc1
SR leukemia
  TGI: > 100 µM
OVCAR-5 ovarian
  TGI: > 100 µM
KM12 colon
  TGI: > 100 µM
OVCAR-3 ovarian
  TGI: > 100 µM
SF-268 CNS
  TGI: > 100 µM
OVCAR-4 ovarian
  TGI: > 100 µM
MALME-3M melanoma
  TGI: > 100 µM
NCI-H460 lung
  TGI: > 100 µM
IGROV1 ovarian
  TGI: > 100 µM
HT29 colon
  TGI: > 100 µM

## CCOC(=O)[C@@H](C)C[C@H](Cc1ccccc1)NC(=O)c1csc([C@@H](C[C@H](C(C)C)N(C)C(=O)[C@@H](NC(=O)[C@H]2C[C@H](O[Si](C)(C)C(C)(C)C)CCN2C)C(C)C)OC(C)=O)n1
SR leukemia
  GI50: 0.0387 µM
  TGI: 1.82 µM
OVCAR-5 ovarian
  GI50: 0.296 µM
  TGI: > 7.43 µM
KM12 colon
  GI50: 0.241 µM
  TGI: > 8.33 µM
OVCAR-3 ovarian
  GI50: 0.192 µM
  TGI: > 2.07 µM
SF-268 CNS
  GI50: 0.441 µM
  TGI: > 8.33 µM
OVCAR-4 ovarian
  GI50: 0.674 µM
  TGI: > 8.33 µM
MALME-3M melanoma
  GI50: 0.215 µM
  TGI: > 8.33 µM
NCI-H460 lung
  GI50: 0.188 µM
  TGI: 1.34 µM
IGROV1 ovarian
  GI50: 0.272 µM
  TGI: > 8.33 µM
HT29 colon
  GI50: 0.267 µM
  TGI: 1.96 µM

## c1ccc2c(c1)[I+]c1ccccc1-2
SR leukemia
  GI50: 19.4 µM
  TGI: > 50 µM
OVCAR-5 ovarian
  GI50: > 50 µM
  TGI: > 50 µM
KM12 colon
  GI50: > 50 µM
  TGI: > 50 µM
OVCAR-3 ovarian
  GI50: > 50 µM
  TGI: > 50 µM
SF-268 CNS
  GI50: > 50 µM
  TGI: > 50 µM
OVCAR-4 ovarian
  GI50: 21.6 µM
  TGI: > 50 µM
MALME-3M melanoma
  GI50: > 50 µM
  TGI: > 50 µM
NCI-H460 lung
  GI50: 33.9 µM
  TGI: > 50 µM
IGROV1 ovarian
  GI50: > 50 µM
  TGI: > 50 µM
HT29 colon
  GI50: 38.6 µM
  TGI: > 50 µM

## COc1cc2c(cc1C)NC(=O)/C2=C\c1cc(OC)c(OC)c(OC)c1
SR leukemia
  GI50: 11.5 µM
  TGI: 47.4 µM
OVCAR-5 ovarian
  GI50: 32.2 µM
  TGI: > 100 µM
KM12 colon
  GI50: > 100 µM
  TGI: > 100 µM
OVCAR-3 ovarian
  GI50: > 100 µM
  TGI: > 100 µM
SF-268 CNS
  GI50: > 100 µM
  TGI: > 100 µM
OVCAR-4 ovarian
  GI50: > 100 µM
  TGI: > 100 µM
MALME-3M melanoma
  GI50: 72.3 µM
  TGI: > 100 µM
NCI-H460 lung
  GI50: > 100 µM
  TGI: > 100 µM
IGROV1 ovarian
  GI50: 72.1 µM
  TGI: > 100 µM
HT29 colon
  GI50: > 100 µM
  TGI: > 100 µM

## Cc1nc(N)sc1C(=O)/C=C/c1ccc(/C=C/C(=O)c2sc(NC(=O)CCCCCCCCC(=O)Nc3nc(C)c(C(=O)/C=C/c4ccc(/C=C/C(=O)c5sc(N)nc5C)cc4)s3)nc2C)cc1
SR leukemia
  TGI: > 100 µM
OVCAR-5 ovarian
  TGI: > 100 µM
KM12 colon
  TGI: > 100 µM
OVCAR-3 ovarian
  TGI: > 100 µM
SF-268 CNS
  TGI: > 100 µM
OVCAR-4 ovarian
  TGI: > 100 µM
MALME-3M melanoma
  TGI: > 100 µM
NCI-H460 lung
  TGI: > 100 µM
IGROV1 ovarian
  TGI: > 100 µM
HT29 colon
  TGI: > 100 µM

## CC(=O)OCC1OC(n2c(-c3ccccc3)cc(-c3ccco3)c(C#N)c2=O)C(OC(C)=O)C(OC(C)=O)C1OC(C)=O (centres undefined)
SR leukemia
  GI50: > 100 µM and 46.1 µM
  TGI: > 100 µM
OVCAR-5 ovarian
  TGI: > 100 µM
KM12 colon
  GI50: 75 µM and 36.5 µM
  TGI: > 100 µM
OVCAR-3 ovarian
  TGI: > 100 µM
SF-268 CNS
  GI50: 17.4 µM and 35 µM
  TGI: 64.2 µM and > 100 µM
OVCAR-4 ovarian
  TGI: > 100 µM
MALME-3M melanoma
  GI50: 23 µM and 85.9 µM
  TGI: > 100 µM
NCI-H460 lung
  TGI: > 100 µM
IGROV1 ovarian
  TGI: > 100 µM
HT29 colon
  TGI: > 100 µM

## CC(=O)O[C@H]1C(N(C)C(=O)c2ccccc2)CC[C@]2(C)C3CC[C@@]4(C)C(CC(O)[C@@H]4C(C)N(C)C)[C@@H]3CCC12 (some centres undefined)
SR leukemia
  TGI: > 100 µM
OVCAR-5 ovarian
  TGI: > 100 µM
KM12 colon
  TGI: > 100 µM
OVCAR-3 ovarian
  TGI: > 100 µM
SF-268 CNS
  TGI: > 100 µM
OVCAR-4 ovarian
  TGI: > 100 µM
MALME-3M melanoma
  TGI: > 100 µM
NCI-H460 lung
  TGI: > 100 µM
IGROV1 ovarian
  TGI: > 100 µM
HT29 colon
  TGI: > 100 µM

## CCN(CC)CCn1c2c3ccccc3ccc2c2oc(=O)c3ccccc3c21
SR leukemia
  TGI: > 100 µM
OVCAR-5 ovarian
  TGI: > 100 µM
KM12 colon
  TGI: > 100 µM
OVCAR-3 ovarian
  TGI: > 100 µM
SF-268 CNS
  TGI: > 100 µM
OVCAR-4 ovarian
  TGI: 96.5 µM
MALME-3M melanoma
  TGI: > 100 µM
NCI-H460 lung
  TGI: > 100 µM
IGROV1 ovarian
  TGI: > 100 µM
HT29 colon
  TGI: > 100 µM

## CC1=C2C(O)C(C(C)CO)C(O)CC2(C)C(O)CC1 (centres undefined)
SR leukemia
  TGI: > 100 µM
OVCAR-5 ovarian
  TGI: > 100 µM
KM12 colon
  TGI: > 100 µM
OVCAR-3 ovarian
  TGI: > 100 µM
SF-268 CNS
  TGI: > 100 µM
OVCAR-4 ovarian
  TGI: > 100 µM
MALME-3M melanoma
  TGI: > 100 µM
NCI-H460 lung
  TGI: > 100 µM
IGROV1 ovarian
  TGI: > 100 µM
HT29 colon
  TGI: > 100 µM

## O=C(Nc1ccccc1C(F)(F)F)c1cccc(NC2=C(Cl)C(=O)N(Cc3ccccc3)C2=O)c1
SR leukemia
  GI50: 0.447 µM
  TGI: 4.35 µM
OVCAR-5 ovarian
  GI50: 20 µM
  TGI: > 100 µM
KM12 colon
  GI50: 19.2 µM
  TGI: > 85.2 µM
OVCAR-3 ovarian
  GI50: 6.62 µM
  TGI: > 43.8 µM
SF-268 CNS
  GI50: 9.32 µM
  TGI: > 25.3 µM
OVCAR-4 ovarian
  GI50: 45.1 µM
  TGI: > 100 µM
MALME-3M melanoma
  GI50: 42.6 µM
  TGI: > 100 µM
NCI-H460 lung
  GI50: 3.52 µM
  TGI: 15.9 µM
IGROV1 ovarian
  GI50: 0.985 µM
  TGI: 18.8 µM
HT29 colon
  GI50: 65.6 µM
  TGI: > 100 µM

## NC(=O)c1c[se]c(C2OC(CO)C(O)C2O)n1 (centres undefined)
SR leukemia
  TGI: > 100 µM
OVCAR-5 ovarian
  TGI: > 100 µM
KM12 colon
  TGI: > 45 µM
OVCAR-3 ovarian
  TGI: > 59 µM
SF-268 CNS
  TGI: > 100 µM
OVCAR-4 ovarian
  TGI: > 100 µM
MALME-3M melanoma
  TGI: > 100 µM
NCI-H460 lung
  TGI: > 100 µM
IGROV1 ovarian
  TGI: > 100 µM
HT29 colon
  TGI: > 100 µM

## C=CCNC(=S)N1CC(C)C(=O)Nc2ccccc21 (centres undefined)
SR leukemia
  TGI: > 100 µM
OVCAR-5 ovarian
  TGI: > 100 µM
KM12 colon
  TGI: > 100 µM
OVCAR-3 ovarian
  TGI: > 100 µM
SF-268 CNS
  TGI: > 100 µM
OVCAR-4 ovarian
  TGI: > 100 µM
MALME-3M melanoma
  TGI: > 100 µM
NCI-H460 lung
  TGI: > 100 µM
IGROV1 ovarian
  TGI: > 100 µM
HT29 colon
  TGI: > 100 µM
